From patent publication US20220370440A1 (Lead Discovery Center GmbH, priority 2018, published 2022) come the findings set out here.

Bounds are passed on as bounds.

One data set concerns the target T1, HER2 INS YVMA (Homo sapiens, UniProt P04626, INS775YVMA).
T1 construct: purchased DPF
In words: Lance Kinase Activity Assay, HER2 INS YVMA (Her2 Exon 20 INSYVMA Lance). To be noted: biochemical Lance assay. It counts as biochemical. In a few lines: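 Kinase phosphorylates a ULight-labelled peptide substrate; Eu anti-phospho antibody gives TR-FRET (ex 340 nm, em 665/615 nm). Compounds in 1:3 serial dilution over 8 steps, reaction started with ATP, 1 h at room temperature, stopped with EDTA-containing detection mix for 1 h. IC50 from sigmoidal dose-response curves.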

In data set [1] the target is Her2 Exon 20 INSYVMA Ba/F3 (Homo sapiens, UniProt P04626, DUP772-775, cells depend on it). In words: Her2 Exon 20 INSYVMA Ba/F3 CellTiter-Glo. It counts as cell-based. The following applies: CellTiter-Glo, 72 h, read-out: Her2 Exon 20 INSYVMA Ba/F3 CTG IC50. In a few lines:
(§1)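 Seed Ba/F3 cells; 24 h, 37 °C/5% CO2. Add cpds in DMSO, multiple concs; 72 h. CellTiter-Glo, 10 min RT, luminescence. IC50 by curve fit. Z′ ≥0.5 from DMSO vs 10 μM staurosporine.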
Background: Cellular ATP, detected with luciferase, serves as a proxy for viable cell number.

For data set [2], the target named is EGFR Exon 20 INSNPH Ba/F3 (Homo sapiens, UniProt P00533, DUP771-773, cells depend on it). In words: EGFR Exon 20 INSNPH Ba/F3 CellTiter-Glo. It counts as cell-based. The following applies: CellTiter-Glo, 72 h, read-out: EGFR Exon 20 INSNPH Ba/F3 CTG IC50. In a few lines: as §1
Sequence of EGFR Exon 20 INSNPH Ba/F3 (P00533 with tags, fused parts or gaps DUP771-773): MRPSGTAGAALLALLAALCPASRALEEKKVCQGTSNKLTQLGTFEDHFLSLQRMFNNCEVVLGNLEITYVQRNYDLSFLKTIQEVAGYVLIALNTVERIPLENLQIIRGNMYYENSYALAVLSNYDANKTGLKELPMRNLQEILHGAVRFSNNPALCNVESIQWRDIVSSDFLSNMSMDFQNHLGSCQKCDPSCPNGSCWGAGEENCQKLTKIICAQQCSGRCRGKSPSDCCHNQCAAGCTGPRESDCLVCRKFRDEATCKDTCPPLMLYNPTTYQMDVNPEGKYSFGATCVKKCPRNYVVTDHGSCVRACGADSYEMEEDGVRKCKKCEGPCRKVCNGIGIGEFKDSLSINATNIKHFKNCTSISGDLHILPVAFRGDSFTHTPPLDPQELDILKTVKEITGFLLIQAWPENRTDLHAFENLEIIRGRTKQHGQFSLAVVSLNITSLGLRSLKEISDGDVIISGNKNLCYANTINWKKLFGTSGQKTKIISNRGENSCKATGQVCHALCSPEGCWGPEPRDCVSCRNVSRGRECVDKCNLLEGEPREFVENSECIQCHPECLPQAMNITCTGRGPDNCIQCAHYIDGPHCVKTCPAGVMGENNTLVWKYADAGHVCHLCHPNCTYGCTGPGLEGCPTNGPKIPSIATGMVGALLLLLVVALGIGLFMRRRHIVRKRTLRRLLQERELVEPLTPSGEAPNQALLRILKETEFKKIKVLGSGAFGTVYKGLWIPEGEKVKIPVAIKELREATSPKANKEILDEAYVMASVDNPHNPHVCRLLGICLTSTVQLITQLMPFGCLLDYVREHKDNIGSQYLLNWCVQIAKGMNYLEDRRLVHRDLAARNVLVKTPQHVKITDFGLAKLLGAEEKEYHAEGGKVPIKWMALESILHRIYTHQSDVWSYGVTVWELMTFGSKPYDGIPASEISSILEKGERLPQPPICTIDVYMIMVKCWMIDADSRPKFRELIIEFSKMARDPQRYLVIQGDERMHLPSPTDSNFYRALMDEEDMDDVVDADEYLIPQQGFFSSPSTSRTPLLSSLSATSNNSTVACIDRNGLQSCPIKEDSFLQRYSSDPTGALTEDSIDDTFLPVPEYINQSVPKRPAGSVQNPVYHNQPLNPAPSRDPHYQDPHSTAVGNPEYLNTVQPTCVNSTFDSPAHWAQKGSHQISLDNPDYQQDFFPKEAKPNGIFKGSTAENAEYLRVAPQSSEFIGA
Another data set has as its target EGFR T790ML858R (Homo sapiens, UniProt P00533, L858R/T790M). In words: EGFR T790ML858R Lance assay. It counts as biochemical. The protocol: (§2) Inhibition is indicated as […] [nM] (“−”=not measured). Compounds having an activity designated as “A” provided an IC50≤100 nM; compounds having an activity designated as “B” provided an 100 nM<IC50≤500 nM; compounds having an activity designated as “C” provided an 500 nM<IC50≤1000 nM; compounds having an activity designated as “D” provided an 1000 nM<IC50≤100000 nM; and compounds having an activity designated as “E” provided an IC50>10000 nM.

The next data set addresses EGFR wt (Homo sapiens, UniProt P00533). Kind of data set: EGFR wt Lance assay. It counts as biochemical. The method, then:
as §2

The next data set concerns H1975. Kind of data set: H1975 CellTiter-Glo. It counts as cell-based. The following applies: Homo sapiens, NCI-H1975; 72 h compound incubation; read-out: H1975 CTG IC50. In a few lines:
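Cells seeded, after 24 h at 37° C/5% CO2 treated with compounds in DMSO at various concentrations for 72 h. Viability from ATP luminescence (CellTiter-Glo); DMSO and 10 μM Staurosporine as controls; IC50 from dose-response fit, plates accepted at Z′ ≥0.5.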

The nature of data set [3]: Metabolic stability in mouse liver microsomes without cofactor NADPH. The following applies: 3 μM test compound, mouse liver microsomes, without NADPH, 50 min, 37° C., LC-MS/MS. It counts as in vitro ADME. The source says:
There are two major groups of enzyme reactions catalyzed by drug metabolizing enzymes, the so called Phase I and Phase II reactions. The basic processes in phase I reactions are oxidation, reduction and/or hydrolysis mostly catalyzed by the cytochrome P450 (CYP) family of enzymes.
The following procedures describe the determination of the in vitro Phase I metabolic stability of test compounds using liver microsomes by measuring compound depletion over time. Test compound at the concentration of 3 μM was incubated with the liver microsomes from the mouse species and the experiment was performed without NADPH. The depletion of the test compounds was measured over time up to 50 minutes at 37° C. by LC-MS/MS. Different compounds were tested under these conditions for microsomal stability (see Table 5).

Sequence of EGFR T790ML858R (P00533 25-1210 T790M/L858R): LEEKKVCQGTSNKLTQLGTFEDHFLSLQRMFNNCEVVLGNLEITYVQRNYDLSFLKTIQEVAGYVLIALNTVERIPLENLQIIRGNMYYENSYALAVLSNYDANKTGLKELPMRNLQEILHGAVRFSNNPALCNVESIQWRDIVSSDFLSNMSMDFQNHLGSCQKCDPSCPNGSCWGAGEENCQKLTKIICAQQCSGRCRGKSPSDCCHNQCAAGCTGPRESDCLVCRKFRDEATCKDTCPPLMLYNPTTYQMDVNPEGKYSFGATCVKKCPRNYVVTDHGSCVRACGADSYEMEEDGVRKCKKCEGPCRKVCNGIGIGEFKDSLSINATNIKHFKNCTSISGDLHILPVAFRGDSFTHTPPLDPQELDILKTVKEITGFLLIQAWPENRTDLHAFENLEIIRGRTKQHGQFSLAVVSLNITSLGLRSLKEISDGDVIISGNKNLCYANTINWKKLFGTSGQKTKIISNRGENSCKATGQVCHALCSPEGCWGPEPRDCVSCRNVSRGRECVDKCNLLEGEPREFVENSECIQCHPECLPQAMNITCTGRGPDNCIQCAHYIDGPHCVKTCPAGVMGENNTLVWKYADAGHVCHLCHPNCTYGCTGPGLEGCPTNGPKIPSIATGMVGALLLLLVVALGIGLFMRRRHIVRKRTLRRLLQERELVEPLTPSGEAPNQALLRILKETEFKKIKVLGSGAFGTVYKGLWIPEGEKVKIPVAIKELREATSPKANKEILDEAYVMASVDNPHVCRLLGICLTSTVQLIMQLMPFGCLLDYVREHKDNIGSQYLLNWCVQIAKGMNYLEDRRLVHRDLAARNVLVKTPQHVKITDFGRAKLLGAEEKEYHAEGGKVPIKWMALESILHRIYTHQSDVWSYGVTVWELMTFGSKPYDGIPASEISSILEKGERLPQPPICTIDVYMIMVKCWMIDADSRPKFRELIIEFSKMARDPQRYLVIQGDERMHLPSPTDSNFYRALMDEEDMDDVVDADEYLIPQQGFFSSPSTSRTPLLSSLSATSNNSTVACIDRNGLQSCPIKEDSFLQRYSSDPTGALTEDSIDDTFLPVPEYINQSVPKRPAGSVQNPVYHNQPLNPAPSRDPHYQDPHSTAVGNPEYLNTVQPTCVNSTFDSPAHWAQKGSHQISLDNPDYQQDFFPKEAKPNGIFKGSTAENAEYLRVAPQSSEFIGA
Sequence of Her2 Exon 20 INSYVMA Ba/F3 (P04626 with tags, fused parts or gaps DUP772-775): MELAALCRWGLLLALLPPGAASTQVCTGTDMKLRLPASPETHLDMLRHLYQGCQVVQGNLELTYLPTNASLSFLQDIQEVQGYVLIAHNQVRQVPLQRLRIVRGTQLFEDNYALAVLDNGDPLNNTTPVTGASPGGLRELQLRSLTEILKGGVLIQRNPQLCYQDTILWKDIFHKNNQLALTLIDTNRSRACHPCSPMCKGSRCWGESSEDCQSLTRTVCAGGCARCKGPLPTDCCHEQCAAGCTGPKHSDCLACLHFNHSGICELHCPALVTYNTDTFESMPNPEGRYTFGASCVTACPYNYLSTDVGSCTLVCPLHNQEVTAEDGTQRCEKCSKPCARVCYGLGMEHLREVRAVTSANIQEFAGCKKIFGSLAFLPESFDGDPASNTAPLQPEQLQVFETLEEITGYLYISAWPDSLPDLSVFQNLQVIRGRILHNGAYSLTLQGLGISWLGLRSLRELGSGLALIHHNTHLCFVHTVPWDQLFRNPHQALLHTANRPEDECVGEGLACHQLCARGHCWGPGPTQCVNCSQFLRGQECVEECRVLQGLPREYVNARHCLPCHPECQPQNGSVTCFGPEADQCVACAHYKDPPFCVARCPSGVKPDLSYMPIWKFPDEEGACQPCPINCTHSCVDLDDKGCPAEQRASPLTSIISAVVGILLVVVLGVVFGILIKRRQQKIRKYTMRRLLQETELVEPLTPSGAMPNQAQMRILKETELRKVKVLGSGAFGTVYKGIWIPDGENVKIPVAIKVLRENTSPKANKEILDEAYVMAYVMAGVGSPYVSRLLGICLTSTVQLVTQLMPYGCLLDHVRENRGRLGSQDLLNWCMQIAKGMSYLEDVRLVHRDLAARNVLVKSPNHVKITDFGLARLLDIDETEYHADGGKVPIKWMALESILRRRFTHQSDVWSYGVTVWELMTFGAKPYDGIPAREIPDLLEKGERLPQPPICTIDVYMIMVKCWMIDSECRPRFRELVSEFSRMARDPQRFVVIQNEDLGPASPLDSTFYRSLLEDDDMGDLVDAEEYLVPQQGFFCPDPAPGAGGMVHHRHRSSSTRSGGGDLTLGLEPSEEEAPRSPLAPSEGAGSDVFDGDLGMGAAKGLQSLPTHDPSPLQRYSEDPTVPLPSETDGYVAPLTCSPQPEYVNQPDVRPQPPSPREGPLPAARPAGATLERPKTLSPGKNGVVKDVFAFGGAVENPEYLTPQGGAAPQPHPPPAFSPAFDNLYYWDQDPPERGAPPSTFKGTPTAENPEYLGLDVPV
Sequence of EGFR wt (P00533 25-1210): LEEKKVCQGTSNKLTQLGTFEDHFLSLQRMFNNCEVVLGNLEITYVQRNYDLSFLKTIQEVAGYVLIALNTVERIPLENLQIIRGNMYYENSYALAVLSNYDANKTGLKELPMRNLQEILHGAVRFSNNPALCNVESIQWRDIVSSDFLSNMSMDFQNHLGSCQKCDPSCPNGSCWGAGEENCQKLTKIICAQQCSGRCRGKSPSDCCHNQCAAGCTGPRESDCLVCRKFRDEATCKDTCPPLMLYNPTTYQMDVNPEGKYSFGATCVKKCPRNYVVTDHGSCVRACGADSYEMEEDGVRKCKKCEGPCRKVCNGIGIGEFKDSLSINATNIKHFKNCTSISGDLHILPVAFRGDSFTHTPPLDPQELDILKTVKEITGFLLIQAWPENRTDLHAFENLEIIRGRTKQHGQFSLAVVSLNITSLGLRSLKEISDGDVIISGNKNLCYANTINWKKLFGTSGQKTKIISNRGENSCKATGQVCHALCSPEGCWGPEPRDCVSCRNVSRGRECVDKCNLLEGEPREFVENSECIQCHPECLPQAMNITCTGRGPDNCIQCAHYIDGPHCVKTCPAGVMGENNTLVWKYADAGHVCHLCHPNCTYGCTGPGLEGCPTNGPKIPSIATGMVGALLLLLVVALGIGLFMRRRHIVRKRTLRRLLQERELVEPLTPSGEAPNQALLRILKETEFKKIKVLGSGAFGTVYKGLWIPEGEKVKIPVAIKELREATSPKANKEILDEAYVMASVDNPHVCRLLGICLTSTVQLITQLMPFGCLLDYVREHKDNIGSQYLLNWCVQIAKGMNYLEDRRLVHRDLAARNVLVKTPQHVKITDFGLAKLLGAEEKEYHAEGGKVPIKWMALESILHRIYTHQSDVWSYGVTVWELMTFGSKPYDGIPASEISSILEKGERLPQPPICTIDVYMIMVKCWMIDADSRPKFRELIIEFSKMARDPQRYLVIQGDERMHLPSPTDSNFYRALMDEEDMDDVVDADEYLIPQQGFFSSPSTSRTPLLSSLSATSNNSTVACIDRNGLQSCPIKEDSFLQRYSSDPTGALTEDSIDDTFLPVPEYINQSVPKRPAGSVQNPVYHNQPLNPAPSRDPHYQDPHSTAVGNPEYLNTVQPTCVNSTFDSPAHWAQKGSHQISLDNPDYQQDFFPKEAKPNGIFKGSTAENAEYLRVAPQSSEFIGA

As for `C=CC(=O)Nc1cc(-c2c(-c3cccc(C(=O)N4CCOCC4)c3)[nH]c3nccc(Cl)c23)ccc1C` [Example 27, N-(5-(4-chloro-2-(3-(morpholine-4-carbonyl)phenyl)-1H-pyrrolo[2,3-b]pyridin-3-yl)-2-methylphenyl)acrylamide], the IC50 (usually the concentration needed to halve the response being measured) against HER2 INS YVMA was 500 to 1000 nM; on EGFR T790ML858R, at most 100 nM; on EGFR wt it was 100 to 500 nM; in the data set on H1975 it was 100 to 500 nM. Moreover, the GI50 in data set [1] and in data set [2] was 1000 to 10000 nM throughout. Also, the “Stability in presence of mouse liver microsomes without cofactor NADPH [% remaining after 50 min]” value in data set [3] is listed as over 99 % remaining after 50 min.

In the case of `C=CC(=O)Nc1cc(-c2c(-c3ccc(N4CCOCC4)nc3)[nH]c3nccc(Cl)c23)ccc1C` [Example 30, N-(5-(4-chloro-2-(6-morpholinopyridin-3-yl)-1H-pyrrolo[2,3-b]pyridin-3-yl)-2-methylphenyl)acrylamide], the IC50 against HER2 INS YVMA is 100 to 500 nM; against EGFR T790ML858R it was at most 100 nM; at EGFR wt, at most 100 nM; in the data set with H1975, 100 to 500 nM. The values for the GI50 in data set [1] and in data set [2] were 1000 to 10000 nM and 500 to 1000 nM, respectively. Moreover, in data set [3], the “Stability in presence of mouse liver microsomes without cofactor NADPH [% remaining after 50 min]” value is recorded as over 99 % remaining after 50 min.

Take `C=CC(=O)Nc1cc(-c2c(-c3ccc(N4CCN(C(C)=O)CC4)nc3)[nH]c3nccc(Cl)c23)ccc1C` [Example 31, N-(5-(2-(6-(4-acetylpiperazin-1-yl)pyridin-3-yl)-4-chloro-1H-pyrrolo[2,3-b]pyridin-3-yl)-2-methylphenyl)acrylamide]: the IC50 on HER2 INS YVMA is 100 to 500 nM; against EGFR T790ML858R, at most 100 nM; against EGFR wt, 500 to 1000 nM; with H1975, 100 to 500 nM. In addition, the GI50 in data set [1] and in data set [2] was 1000 to 10000 nM in each case. In addition, in data set [3], the “Stability in presence of mouse liver microsomes without cofactor NADPH [% remaining after 50 min]” value was over 99 % remaining after 50 min.

Regarding `C=CC(=O)Nc1cc(-c2c(-c3ccc(NS(C)(=O)=O)cc3)[nH]c3nccc(Cl)c23)ccc1C` [Example 12, N-(5-(4-chloro-2-(4-(methylsulfonamido)phenyl)-1H-pyrrolo[2,3-b]pyridin-3-yl)-2-methylphenyl)acrylamide], the IC50 against HER2 INS YVMA is 100 to 500 nM; against EGFR T790ML858R, at most 100 nM; against EGFR wt, at most 100 nM; with H1975 it was at most 100 nM. Besides, the GI50 in data set [1] and in data set [2] was 100 to 500 nM each time. Also, the “Stability in presence of mouse liver microsomes without cofactor NADPH [% remaining after 50 min]” value in data set [3] is over 99 % remaining after 50 min.

On to `C=CC(=O)Nc1cc(-c2c(-c3cccc(CN4CCN(C(C)=O)CC4)c3)[nH]c3nccc(Cl)c23)ccc1C` [Example 22, N-(5-(2-(3-((4-acetylpiperazin-1-yl)methyl)phenyl)-4-chloro-1H-pyrrolo[2,3-b]pyridin-3-yl)-2-methylphenyl)acrylamide], for which the IC50 against HER2 INS YVMA was 100 to 500 nM; against EGFR T790ML858R it was at most 100 nM; against EGFR wt it was 100 to 500 nM; in the data set with H1975, 100 to 500 nM. Also, the GI50 in data set [1] lay in the range of 500 to 1000 nM; in data set [2], 1000 to 10000 nM. Besides, the “Stability in presence of mouse liver microsomes without cofactor NADPH [% remaining after 50 min]” value in data set [3] was over 99 % remaining after 50 min.

With `C=CC(=O)Nc1cc(-c2c(-c3ccc(C(=O)N4CCN(C)CC4)cc3)[nH]c3nccc(Cl)c23)ccc1C` [Example 9, N-(5-(4-chloro-2-(4-(4-methylpiperazine-1-carbonyl)phenyl)-1H-pyrrolo[2,3-b]pyridin-3-yl)-2-methylphenyl)acrylamide], the IC50 against HER2 INS YVMA, on EGFR T790ML858R, against EGFR wt and with H1975 was at most 100 nM each time. Besides, the GI50 in data set [1] and in data set [2] was 100 to 500 nM in each case. In addition, the “Stability in presence of mouse liver microsomes without cofactor NADPH [% remaining after 50 min]” value in data set [3] was over 99 % remaining after 50 min.

As for `C=CC(=O)Nc1cc(-c2c(-c3cccc(N4CCOCC4)c3)[nH]c3nccc(Cl)c23)ccc1C` [Example 6, N-(5-(4-chloro-2-(3-morpholinophenyl)-1H-pyrrolo[2,3-b]pyridin-3-yl)-2-methylphenyl)acrylamide], the 50% inhibitory concentration (IC50) at HER2 INS YVMA is 500 to 1000 nM; against EGFR T790ML858R, at most 100 nM; on EGFR wt, at most 100 nM; in the data set with H1975, 100 to 500 nM. Further, the GI50 in data set [1] and in data set [2] was 500 to 1000 nM throughout. Moreover, the “Stability in presence of mouse liver microsomes without cofactor NADPH [% remaining after 50 min]” value in data set [3] is listed as over 99 % remaining after 50 min.

As for `C=CC(=O)Nc1cc(-c2c(-c3cncnc3)[nH]c3nccc(Cl)c23)ccc1C` [Example 24, N-(5-(4-chloro-2-(pyrimidin-5-yl)-1H-pyrrolo[2,3-b]pyridin-3-yl)-2-methylphenyl)acrylamide], the IC50 on HER2 INS YVMA is 100 to 500 nM; at EGFR T790ML858R it was at most 100 nM; against EGFR wt, 100 to 500 nM; in the data set on H1975 it was 100 to 500 nM. Also, the GI50 in data set [1] and in data set [2] was 500 to 1000 nM throughout. Besides, the “Stability in presence of mouse liver microsomes without cofactor NADPH [% remaining after 50 min]” value in data set [3] is recorded as over 99 % remaining after 50 min.

Regarding `C=CC(=O)Nc1cc(-c2c(-c3ccnc(N4CCOCC4)c3)[nH]c3nccc(Cl)c23)ccc1C` [Example 32, N-(5-(4-chloro-2-(2-morpholinopyridin-4-yl)-1H-pyrrolo[2,3-b]pyridin-3-yl)-2-methylphenyl)acrylamide], the IC50 was 100 to 500 nM against HER2 INS YVMA, at most 100 nM at EGFR T790ML858R, at most 100 nM against EGFR wt and at most 100 nM with H1975. For the same molecule, the GI50 in data set [1] and in data set [2] was 500 to 1000 nM throughout. In addition, the “Stability in presence of mouse liver microsomes without cofactor NADPH [% remaining after 50 min]” value in data set [3] is on record as over 99 % remaining after 50 min.

In the case of `C=CC(=O)Nc1cc(-c2c(-c3ccc(NC(C)=O)cc3)[nH]c3nccc(Cl)c23)ccc1C` [Example 14, N-(5-(2-(4-acetamidophenyl)-4-chloro-1H-pyrrolo[2,3-b]pyridin-3-yl)-2-methylphenyl)acrylamide], the IC50 was 100 to 500 nM on HER2 INS YVMA, at most 100 nM against EGFR T790ML858R, at most 100 nM at EGFR wt and 100 to 500 nM in the data set with H1975. Besides, the GI50 in data set [1] and in data set [2] was 500 to 1000 nM in each case. Further, the “Stability in presence of mouse liver microsomes without cofactor NADPH [% remaining after 50 min]” value in data set [3] turned out to be 68 % remaining after 50 min.

In the case of `C=CC(=O)Nc1cc(-c2c(-c3ccc(N4CCN(C)CC4)cc3OC)[nH]c3nccc(Cl)c23)ccc1C` [Example 21, N-(5-(4-chloro-2-(2-methoxy-4-(4-methylpiperazin-1-yl)phenyl)-1H-pyrrolo[2,3-b]pyridin-3-yl)-2-methylphenyl)acrylamide], the IC50 at HER2 INS YVMA is 100 to 500 nM; at EGFR T790ML858R, at most 100 nM; against EGFR wt, at most 100 nM; with H1975, at most 100 nM. Also, the GI50 in data set [1] and in data set [2] was 500 to 1000 nM throughout. The “Stability in presence of mouse liver microsomes without cofactor NADPH [% remaining after 50 min]” value in data set [3] worked out at 93 % remaining after 50 min.

Take `C=CC(=O)Nc1cc(-c2c(-c3ccc(C4CCNCC4)cc3)[nH]c3nccc(Cl)c23)ccc1C` [Example 29, N-(5-(4-chloro-2-(4-(piperidin-4-yl)phenyl)-1H-pyrrolo[2,3-b]pyridin-3-yl)-2-methylphenyl)acrylamide]: the IC50 against HER2 INS YVMA, against EGFR T790ML858R, at EGFR wt and in the data set on H1975 was at most 100 nM throughout. Further, the GI50 in data set [1] and in data set [2] was 500 to 1000 nM throughout. In data set [3], the “Stability in presence of mouse liver microsomes without cofactor NADPH [% remaining after 50 min]” value is over 99 % remaining after 50 min.

Turning to `C=CC(=O)Nc1cc(-c2c(-c3cccc(CN4CCOCC4)c3)[nH]c3nccc(Cl)c23)ccc1C` [Example 7, N-(5-(4-chloro-2-(3-(morpholinomethyl)phenyl)-1H-pyrrolo[2,3-b]pyridin-3-yl)-2-methylphenyl)acrylamide], the IC50 against HER2 INS YVMA is 500 to 1000 nM; at EGFR T790ML858R, at most 100 nM; against EGFR wt it was 100 to 500 nM; in the data set on H1975 it was 100 to 500 nM. In addition, the GI50 in data set [1] was in the range of 500 to 1000 nM; in data set [2], 1000 to 10000 nM. Further, the “Stability in presence of mouse liver microsomes without cofactor NADPH [% remaining after 50 min]” value in data set [3] is recorded as over 99 % remaining after 50 min.
